This is an account of results in patent US7563793B2, “Pyrrolo[1,2-a]quinoxalin-5-(4H)-yl)sulfonyls and carbonyls and their use as estrogenic agents” (Wyeth, priority 2004, dated 2009).

Broadly, the melting point is the temperature, or range, at which the solid turns liquid. As usually defined, the IC50 is the concentration needed to halve the response being measured.

Series [1] has as its system ER/Nf-kB. The series is described as follows: ER/NF-κB luciferase reporter assay in Ad5-wt-ER infected HAECT-1 cells (IL-1β induced). In kind it is cell-based, human. Conditions: for IC50: Homo sapiens, HAECT1; for ER/Nf-kB Efficacy: relative to maximal inhibition observed with E2. An outline of the steps: (§1)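 Ad5-wt-hERα-infected HAECT-1 cells, with uninfected cells as controls; after infection, cells were washed, incubated overnight in EBM-BSA, then held at 34 °C for 1 h. Luciferase was read by luminometry on cell lysates. IC50/EC50 came from four-parameter logistic fits of mean IL-6, luciferase or CK values versus log10 compound concentration.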

Series [2] deals with creatine kinase. The series is described as follows: Creatine kinase assay in Ad5-wt-ER infected HAECT-1 cells. The class given is cell-based, human. Conditions: Homo sapiens; for EC50: HAECT1, CK stimulation, N/O = activity not observed at concentrations tested, read-out: CK IC50; for Emax: HAECT1, relative to maximal stimulation observed with E2, read-out: CK Efficacy. An outline of the steps: as §1

For series [3], the system named is IL-6. The series is described as follows: IL-6 assay (ELISA) in Ad5-wt-ER infected HAECT-1 cells (IL-1β induced). The class given is cell-based, human. Conditions: Homo sapiens; for IC50: HAECT1; for Emax: HAECT1, relative to maximal inhibition observed with E2, read-out: IL-6 Efficacy. How it is done: After four hours, cells were washed with EBM-BSA and incubated overnight in the same medium. […] After two hours, cells were washed and incubated at 34° C. for 1 hour. […] Control (no ER infection) cells were processed as above without Ad5-wt-hERα virus infection. […] Cells were subsequently washed with 300 μl of Dulbecco's phosphate buffered saline and lysed in 50 μl of Cell Culture Lysis Reagent (Promega). Luciferase was determined on a Wallac Victor^2 Luminometer (Gaithersburg, Md.) using 10 μl of lysate and mixing with 100 lμof Promega Luciferase Assay reagent. […] For IC50 and EC50 calculations, mean IL-6, luciferase or CK values versus log10 of the compound concentration were fitted to a four parameter logistic equation. The IC50/EC50 value, ‘Hill slope’, upper and lower limits of the curve were iteratively estimated.

Molecule `CCC1c2cccn2-c2cc(O)c(F)cc2N1S(=O)(=O)c1ccc(O)c(C)c1` (stereo not drawn) [Example 74, 4-ethyl-7-fluoro-5-[(4-hydroxy-3-methylphenyl)sulfonyl]-4,5-dihydropyrrolo[1,2-a]quinoxalin-8-ol] yielded a melting point of 194 to 196 °C. Also, in series [1], 0.157 µM corresponded to half-maximal inhibition (IC50) and the “ER/Nf-kB Efficacy” value turned out to be 75%.
The molecule `CC[C@H]1c2cccn2-c2ccc(Br)cc2N1S(=O)(=O)c1ccc(O)cc1` [Example 77, 4-{[(4S)-7-bromo-4-ethylpyrrolo[1,2-a]quinoxalin-5(4H)-yl]sulfonyl}phenol] showed a melting point of 187 to 189 °C. Further, in series [2], the EC50 is 0.212 µM and the Emax stood at 39%. Besides, in series [1], the IC50 worked out at 0.011 µM and the “ER/Nf-kB Efficacy” value was 186%.
In turn, `CCC1c2ccc(C#N)n2-c2ccc(F)cc2N1S(=O)(=O)c1ccc(O)c(C)c1` (stereo not drawn) [Example 33, 4-ethyl-7-fluoro-5-[(4-hydroxy-3-methylphenyl)sulfonyl]-4,5-dihydropyrrolo[1,2-a]quinoxaline-1-carbonitrile] gave a melting point of 192 to 194 °C. In addition, in series [1], the IC50 was 1.32 µM and the “ER/Nf-kB Efficacy” value is listed as 208%.
`CC[C@@H]1c2cccn2-c2ccc(F)cc2N1C(=O)c1cccc(O)c1` [127 (R), 3-{[(4R)-4-ethyl-7-fluoropyrrolo[1,2-a]quinoxalin-5(4H)-yl]carbonyl}phenol] had a melting point of 115 to 116 °C. Besides, in series [3], the half-maximal inhibitory concentration (IC50) came out at 0.062 µM and the Emax was found to be 132%. Also, in series [2], the EC50 came out at 0.159 µM and the Emax came out at 35%.
On the same counts, the results for `CCC1c2cccn2-c2ccc(F)cc2N1C(=O)c1ccc(O)cc1` (stereo not drawn) [Example 118, 4-[(4-ethyl-7-fluoropyrrolo[1,2-a]quinoxalin-5(4H)-yl)carbonyl]phenol] are 165 to 167 °C, 0.003 µM, 95%, 0.02 µM and 32%.
For `CC[C@H]1c2ccc(C#N)n2-c2cc(F)c(F)cc2N1S(=O)(=O)c1ccc(O)cc1` [101 (S), (4S)-4-ethyl-7,8-difluoro-5-[(4-hydroxyphenyl)sulfonyl]-4,5-dihydropyrrolo[1,2-a]quinoxaline-1-carbonitrile], in that order: 191 to 192 °C, 0.424 µM, 131%, 0.091 µM and 30%.
Turning to `CC[C@H]1c2ccc(C#N)n2-c2cc(F)c(F)cc2N1S(=O)(=O)c1ccc(O)c(C)c1` [Example 11B, (S)-4-ethyl-7,8-difluoro-5-[(4-hydroxy-3-methylphenyl)sulfonyl]-4,5-dihydropyrrolo[1,2-a]quinoxaline-1-carbonitrile], the melting point was in the range of 208 to 210 °C. In series [2], the EC50 was found to be 0.83 µM and the Emax came to 96%. Moreover, in series [1], the IC50 turned out to be 0.332 µM and the “ER/Nf-kB Efficacy” value came out at 96%.
For the molecule `CCC1c2ccc(C#N)n2-c2ccc(C(F)(F)F)cc2N1S(=O)(=O)c1ccc(O)c(C)c1` (stereo not drawn) [Example 59, 4-ethyl-5-[(4-hydroxy-3-methylphenyl)sulfonyl]-7-(trifluoromethyl)-4,5-dihydropyrrolo[1,2-a]quinoxaline-1-carbonitrile], the melting point lay within 194 to 196 °C. Moreover, in series [2], the EC50 is 3 µM and the Emax is -13%. Also, in series [1], 9.7 µM corresponded to half-maximal inhibition (IC50) and the “ER/Nf-kB Efficacy” value worked out at 75%.
`CC[C@H]1c2ccc(C#N)n2-c2cc(F)c(F)cc2N1S(=O)(=O)c1ccc(OS(N)(=O)=O)c(C)c1` [Example 103, 4-{[(4S)-1-cyano-4-ethyl-7,8-difluoropyrrolo[1,2-a]quinoxalin-5(4H)-yl]sulfonyl}-2-methylphenyl sulfamate] gave a melting point of 204 to 207 °C. Further, in series [3], half-maximal inhibition (IC50) was put at 0.101 µM and the Emax stood at 93%. Also, in series [2], the EC50 turned out to be 0.034 µM and the Emax was -18%.
`CCC1c2ccc(C#N)n2-c2cc(F)c(F)cc2N1S(=O)(=O)c1ccc(O)c(C)c1` (stereo not drawn) [Example 12, 4-ethyl-7,8-difluoro-5-[(4-hydroxy-3-methylphenyl)sulfonyl]-4,5-dihydropyrrolo[1,2-a]quinoxaline-1-carbonitrile] had a melting point of 201 to 203 °C. In series [1], the IC50 was 1.82 µM and the “ER/Nf-kB Efficacy” value was found to be 91%.
In turn, `CCC1c2ccc(C#N)n2-c2ccc(F)cc2N1S(=O)(=O)c1ccc(O)cc1` (stereo not drawn) [Example 35, 4-ethyl-7-fluoro-5-[(4-hydroxyphenyl)sulfonyl]-4,5-dihydropyrrolo[1,2-a]quinoxaline-1-carbonitrile] had a melting point of 169 to 171 °C. Moreover, in series [2], the EC50 was determined as 0.107 µM and the Emax was 19%. For the same molecule, in series [1], the IC50 is 0.962 µM and the “ER/Nf-kB Efficacy” value is given as 72%.
The molecule `CCC1c2cccn2-c2ccc(F)cc2N1S(=O)(=O)c1cccc(O)c1` (stereo not drawn) [Example 87, 3-[(4-ethyl-7-fluoropyrrolo[1,2-a]quinoxalin-5(4H)-yl)sulfonyl]phenol] gave a melting point of 153 to 154 °C. In addition, in series [3], the midpoint of inhibition, the IC50, lay at 0.041 µM and the Emax amounted to 112%. Further, in series [2], the EC50 amounted to 0.205 µM and the Emax was found to be 33%.
